Laboratory results reported in ChEMBL document CHEMBL1144455, “A small molecule-kinase interaction map for clinical kinase inhibitors” (Nat Biotechnol, 2005).

Tests used:
[1] = molecular target: T1, Serine/threonine-protein kinase PLK4 (Homo sapiens, UniProt O00444)
T1 sequence (O00444 whole entry): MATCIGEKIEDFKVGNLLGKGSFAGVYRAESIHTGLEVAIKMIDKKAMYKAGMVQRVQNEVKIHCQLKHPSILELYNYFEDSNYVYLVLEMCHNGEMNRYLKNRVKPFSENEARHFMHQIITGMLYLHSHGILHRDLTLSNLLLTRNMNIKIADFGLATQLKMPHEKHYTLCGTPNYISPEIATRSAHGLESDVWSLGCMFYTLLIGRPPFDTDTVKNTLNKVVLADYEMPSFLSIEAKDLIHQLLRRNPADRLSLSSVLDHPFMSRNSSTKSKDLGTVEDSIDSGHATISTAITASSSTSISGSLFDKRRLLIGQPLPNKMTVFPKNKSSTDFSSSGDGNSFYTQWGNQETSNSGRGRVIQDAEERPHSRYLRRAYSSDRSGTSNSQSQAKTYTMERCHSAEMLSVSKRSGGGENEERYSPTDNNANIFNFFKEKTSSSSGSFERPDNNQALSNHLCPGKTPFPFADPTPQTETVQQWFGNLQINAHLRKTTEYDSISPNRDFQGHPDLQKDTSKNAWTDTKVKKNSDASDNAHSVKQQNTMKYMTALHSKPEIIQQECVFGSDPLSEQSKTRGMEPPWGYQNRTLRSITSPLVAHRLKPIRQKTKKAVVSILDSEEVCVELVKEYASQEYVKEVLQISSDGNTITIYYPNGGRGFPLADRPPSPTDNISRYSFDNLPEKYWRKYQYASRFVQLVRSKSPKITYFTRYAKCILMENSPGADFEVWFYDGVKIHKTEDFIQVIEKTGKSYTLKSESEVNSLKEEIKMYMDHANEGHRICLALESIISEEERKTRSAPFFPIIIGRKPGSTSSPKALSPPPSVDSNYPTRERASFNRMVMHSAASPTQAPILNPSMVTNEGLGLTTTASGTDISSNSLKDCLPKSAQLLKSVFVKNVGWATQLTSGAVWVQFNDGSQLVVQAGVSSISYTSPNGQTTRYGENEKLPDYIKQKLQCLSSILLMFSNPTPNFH

[2] = molecular target: Tyrosine-protein kinase ABL1 (Homo sapiens, UniProt P00519, T315I)
[3] = molecular target: Serine/threonine-protein kinase PAK 1 (Homo sapiens, UniProt Q13153)
[4] = molecular target: Serine/threonine-protein kinase Nek6 (Homo sapiens, UniProt Q9HC98)
[5] = molecular target: Mast/stem cell growth factor receptor Kit (Homo sapiens, UniProt P10721)
[6] = molecular target: Platelet-derived growth factor receptor beta (Homo sapiens, UniProt P09619)
[7] = molecular target: Mitogen-activated protein kinase kinase kinase kinase 5 (Homo sapiens, UniProt Q9Y4K4)
LIM domain kinase 1 = LIM domain kinase 1 (Homo sapiens, UniProt P53667)
[8] = molecular target: Tyrosine-protein kinase CSK (Homo sapiens, UniProt P41240)
[9] = molecular target: Death-associated protein kinase 3 (Homo sapiens, UniProt O43293)
[10] = molecular target: T2, Serine/threonine-protein kinase 36 (Homo sapiens, UniProt Q9NRP7)
T2 sequence (Q9NRP7 whole entry): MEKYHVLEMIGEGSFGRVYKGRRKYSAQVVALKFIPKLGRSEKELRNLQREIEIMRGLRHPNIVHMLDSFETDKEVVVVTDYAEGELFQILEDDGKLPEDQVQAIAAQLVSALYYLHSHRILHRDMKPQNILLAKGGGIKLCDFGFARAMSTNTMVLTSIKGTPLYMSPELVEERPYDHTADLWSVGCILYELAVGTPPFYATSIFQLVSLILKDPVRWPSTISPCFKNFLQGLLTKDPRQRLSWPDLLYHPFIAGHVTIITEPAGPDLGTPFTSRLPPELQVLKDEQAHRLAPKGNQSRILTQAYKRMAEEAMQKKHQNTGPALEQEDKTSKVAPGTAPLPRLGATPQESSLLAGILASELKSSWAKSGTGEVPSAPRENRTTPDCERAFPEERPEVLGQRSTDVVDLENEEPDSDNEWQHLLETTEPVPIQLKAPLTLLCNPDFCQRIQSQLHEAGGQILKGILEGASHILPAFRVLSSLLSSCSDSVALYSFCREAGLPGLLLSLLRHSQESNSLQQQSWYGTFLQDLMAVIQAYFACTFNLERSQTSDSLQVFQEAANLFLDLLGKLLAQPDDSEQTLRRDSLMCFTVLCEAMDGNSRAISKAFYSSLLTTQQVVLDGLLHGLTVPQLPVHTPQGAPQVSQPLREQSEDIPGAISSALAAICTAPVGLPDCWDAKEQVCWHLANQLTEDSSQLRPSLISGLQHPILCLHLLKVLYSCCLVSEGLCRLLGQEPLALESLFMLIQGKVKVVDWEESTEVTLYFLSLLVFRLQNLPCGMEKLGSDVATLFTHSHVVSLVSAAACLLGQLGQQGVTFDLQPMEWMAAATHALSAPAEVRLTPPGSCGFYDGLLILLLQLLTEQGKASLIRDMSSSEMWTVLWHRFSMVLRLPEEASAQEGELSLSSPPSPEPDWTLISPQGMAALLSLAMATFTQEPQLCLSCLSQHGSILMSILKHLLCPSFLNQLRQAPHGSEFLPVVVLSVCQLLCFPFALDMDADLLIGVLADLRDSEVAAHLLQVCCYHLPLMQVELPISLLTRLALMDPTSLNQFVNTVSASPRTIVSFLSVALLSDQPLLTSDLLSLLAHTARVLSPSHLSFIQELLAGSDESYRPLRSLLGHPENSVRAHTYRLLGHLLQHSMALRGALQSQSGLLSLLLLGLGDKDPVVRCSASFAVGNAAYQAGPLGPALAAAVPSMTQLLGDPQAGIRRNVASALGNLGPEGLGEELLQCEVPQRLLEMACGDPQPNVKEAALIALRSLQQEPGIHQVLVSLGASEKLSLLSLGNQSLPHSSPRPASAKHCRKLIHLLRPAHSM

[11] = molecular target: Phosphorylase b kinase gamma catalytic chain, skeletal muscle/heart isoform (Homo sapiens, UniProt Q16816)
[12] = molecular target: Ribosomal protein S6 kinase alpha-3 (Homo sapiens, UniProt P51812)
[13] = molecular target: Tyrosine-protein kinase Fer (Homo sapiens, UniProt P16591)

Measured: Kd

Chain of Serine/threonine-protein kinase Nek6 (Q9HC98 whole entry): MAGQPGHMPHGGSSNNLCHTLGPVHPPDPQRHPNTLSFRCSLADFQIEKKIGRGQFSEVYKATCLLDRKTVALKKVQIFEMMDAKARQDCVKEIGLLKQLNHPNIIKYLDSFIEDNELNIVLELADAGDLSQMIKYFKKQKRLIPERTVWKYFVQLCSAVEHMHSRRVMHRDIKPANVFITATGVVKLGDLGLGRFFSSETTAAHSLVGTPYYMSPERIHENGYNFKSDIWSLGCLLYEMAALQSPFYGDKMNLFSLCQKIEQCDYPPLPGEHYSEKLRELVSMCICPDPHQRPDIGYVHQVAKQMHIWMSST
Chain of Ribosomal protein S6 kinase alpha-3 (P51812 whole entry): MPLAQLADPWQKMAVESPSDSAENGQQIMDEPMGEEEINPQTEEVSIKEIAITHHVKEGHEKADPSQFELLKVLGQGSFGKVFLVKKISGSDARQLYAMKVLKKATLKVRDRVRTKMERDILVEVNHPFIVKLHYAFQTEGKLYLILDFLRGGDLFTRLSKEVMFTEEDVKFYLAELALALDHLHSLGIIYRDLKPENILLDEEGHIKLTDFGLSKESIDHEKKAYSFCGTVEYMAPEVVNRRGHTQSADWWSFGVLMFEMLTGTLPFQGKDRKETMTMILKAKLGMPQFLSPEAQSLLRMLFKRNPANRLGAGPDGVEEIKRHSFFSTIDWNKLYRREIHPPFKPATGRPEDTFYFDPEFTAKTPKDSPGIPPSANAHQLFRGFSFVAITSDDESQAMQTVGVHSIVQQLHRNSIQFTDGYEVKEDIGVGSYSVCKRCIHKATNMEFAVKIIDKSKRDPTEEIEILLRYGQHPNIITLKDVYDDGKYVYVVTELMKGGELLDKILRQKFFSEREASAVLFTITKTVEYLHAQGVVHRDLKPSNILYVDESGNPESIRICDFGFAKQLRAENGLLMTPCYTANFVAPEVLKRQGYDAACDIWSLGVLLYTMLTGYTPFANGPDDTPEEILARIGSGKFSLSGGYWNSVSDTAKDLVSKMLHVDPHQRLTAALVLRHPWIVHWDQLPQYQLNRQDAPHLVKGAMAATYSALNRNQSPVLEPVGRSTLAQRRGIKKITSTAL
Chain of Tyrosine-protein kinase Fer (P16591 whole entry): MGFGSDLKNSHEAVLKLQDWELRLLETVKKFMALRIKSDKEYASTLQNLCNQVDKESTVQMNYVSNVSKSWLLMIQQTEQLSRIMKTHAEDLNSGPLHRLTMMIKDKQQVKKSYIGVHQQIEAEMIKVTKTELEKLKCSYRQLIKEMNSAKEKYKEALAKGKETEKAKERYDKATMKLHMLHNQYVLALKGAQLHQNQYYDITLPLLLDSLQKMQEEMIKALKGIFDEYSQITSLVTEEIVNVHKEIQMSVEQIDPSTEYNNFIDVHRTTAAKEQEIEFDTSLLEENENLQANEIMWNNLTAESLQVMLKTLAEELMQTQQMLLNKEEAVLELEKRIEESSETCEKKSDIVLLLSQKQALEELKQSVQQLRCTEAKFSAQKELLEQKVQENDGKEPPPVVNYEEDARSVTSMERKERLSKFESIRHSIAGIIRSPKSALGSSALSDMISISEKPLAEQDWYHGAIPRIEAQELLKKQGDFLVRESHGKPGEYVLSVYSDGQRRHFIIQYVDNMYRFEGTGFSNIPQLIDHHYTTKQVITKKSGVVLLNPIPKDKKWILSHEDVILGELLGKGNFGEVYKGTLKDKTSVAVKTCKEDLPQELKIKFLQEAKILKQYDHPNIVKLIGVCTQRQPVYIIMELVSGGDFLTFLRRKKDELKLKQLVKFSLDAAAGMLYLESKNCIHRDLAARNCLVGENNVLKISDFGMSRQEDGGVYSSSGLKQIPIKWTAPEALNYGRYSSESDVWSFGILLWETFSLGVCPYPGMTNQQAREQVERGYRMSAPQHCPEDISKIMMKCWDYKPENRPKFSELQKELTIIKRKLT
Chain of Tyrosine-protein kinase CSK (P41240 whole entry): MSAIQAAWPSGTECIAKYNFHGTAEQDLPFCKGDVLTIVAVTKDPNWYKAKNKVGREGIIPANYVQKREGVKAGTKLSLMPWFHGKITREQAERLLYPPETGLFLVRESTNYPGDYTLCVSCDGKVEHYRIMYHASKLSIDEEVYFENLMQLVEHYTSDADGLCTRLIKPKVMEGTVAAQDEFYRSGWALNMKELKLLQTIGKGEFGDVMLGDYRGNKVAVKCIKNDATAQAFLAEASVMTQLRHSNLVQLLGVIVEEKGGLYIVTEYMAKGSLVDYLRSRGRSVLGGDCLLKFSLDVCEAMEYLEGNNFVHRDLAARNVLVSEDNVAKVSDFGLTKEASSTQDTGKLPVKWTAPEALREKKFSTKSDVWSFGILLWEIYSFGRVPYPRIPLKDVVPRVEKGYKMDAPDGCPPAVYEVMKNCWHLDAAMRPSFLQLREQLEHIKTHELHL
Chain of LIM domain kinase 1 (P53667 whole entry, the tested form may be a part): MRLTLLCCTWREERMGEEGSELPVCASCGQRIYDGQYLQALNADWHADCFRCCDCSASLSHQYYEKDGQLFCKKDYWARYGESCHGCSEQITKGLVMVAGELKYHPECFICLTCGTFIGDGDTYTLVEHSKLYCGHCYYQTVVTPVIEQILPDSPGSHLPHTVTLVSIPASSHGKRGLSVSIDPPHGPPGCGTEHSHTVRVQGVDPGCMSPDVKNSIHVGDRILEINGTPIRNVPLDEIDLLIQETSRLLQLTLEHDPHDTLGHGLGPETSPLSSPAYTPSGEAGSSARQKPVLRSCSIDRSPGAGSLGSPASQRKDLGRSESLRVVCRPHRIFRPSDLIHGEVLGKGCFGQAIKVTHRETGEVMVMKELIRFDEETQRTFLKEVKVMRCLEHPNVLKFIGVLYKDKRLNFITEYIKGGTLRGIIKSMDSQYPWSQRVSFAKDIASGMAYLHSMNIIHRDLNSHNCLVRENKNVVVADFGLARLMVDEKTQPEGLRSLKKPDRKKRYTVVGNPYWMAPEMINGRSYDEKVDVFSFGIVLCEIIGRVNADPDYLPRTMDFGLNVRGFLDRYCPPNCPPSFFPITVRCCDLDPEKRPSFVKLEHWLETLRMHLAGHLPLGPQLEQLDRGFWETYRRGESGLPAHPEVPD
Chain of Serine/threonine-protein kinase PAK 1 (Q13153 whole entry): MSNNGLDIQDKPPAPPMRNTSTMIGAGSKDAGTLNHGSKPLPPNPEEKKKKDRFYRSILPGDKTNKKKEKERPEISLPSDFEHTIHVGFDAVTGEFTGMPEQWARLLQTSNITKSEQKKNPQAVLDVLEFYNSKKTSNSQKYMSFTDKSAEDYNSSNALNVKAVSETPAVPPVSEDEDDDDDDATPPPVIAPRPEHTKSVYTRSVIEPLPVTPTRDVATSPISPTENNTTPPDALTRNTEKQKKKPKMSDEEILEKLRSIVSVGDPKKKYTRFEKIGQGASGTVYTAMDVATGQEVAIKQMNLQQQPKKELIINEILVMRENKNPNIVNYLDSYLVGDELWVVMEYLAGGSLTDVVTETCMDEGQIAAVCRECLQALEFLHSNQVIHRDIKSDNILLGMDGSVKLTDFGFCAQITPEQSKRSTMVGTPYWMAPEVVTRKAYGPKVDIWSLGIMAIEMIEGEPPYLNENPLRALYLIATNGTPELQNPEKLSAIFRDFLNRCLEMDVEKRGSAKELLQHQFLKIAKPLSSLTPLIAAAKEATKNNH
Chain of Platelet-derived growth factor receptor beta (P09619 whole entry): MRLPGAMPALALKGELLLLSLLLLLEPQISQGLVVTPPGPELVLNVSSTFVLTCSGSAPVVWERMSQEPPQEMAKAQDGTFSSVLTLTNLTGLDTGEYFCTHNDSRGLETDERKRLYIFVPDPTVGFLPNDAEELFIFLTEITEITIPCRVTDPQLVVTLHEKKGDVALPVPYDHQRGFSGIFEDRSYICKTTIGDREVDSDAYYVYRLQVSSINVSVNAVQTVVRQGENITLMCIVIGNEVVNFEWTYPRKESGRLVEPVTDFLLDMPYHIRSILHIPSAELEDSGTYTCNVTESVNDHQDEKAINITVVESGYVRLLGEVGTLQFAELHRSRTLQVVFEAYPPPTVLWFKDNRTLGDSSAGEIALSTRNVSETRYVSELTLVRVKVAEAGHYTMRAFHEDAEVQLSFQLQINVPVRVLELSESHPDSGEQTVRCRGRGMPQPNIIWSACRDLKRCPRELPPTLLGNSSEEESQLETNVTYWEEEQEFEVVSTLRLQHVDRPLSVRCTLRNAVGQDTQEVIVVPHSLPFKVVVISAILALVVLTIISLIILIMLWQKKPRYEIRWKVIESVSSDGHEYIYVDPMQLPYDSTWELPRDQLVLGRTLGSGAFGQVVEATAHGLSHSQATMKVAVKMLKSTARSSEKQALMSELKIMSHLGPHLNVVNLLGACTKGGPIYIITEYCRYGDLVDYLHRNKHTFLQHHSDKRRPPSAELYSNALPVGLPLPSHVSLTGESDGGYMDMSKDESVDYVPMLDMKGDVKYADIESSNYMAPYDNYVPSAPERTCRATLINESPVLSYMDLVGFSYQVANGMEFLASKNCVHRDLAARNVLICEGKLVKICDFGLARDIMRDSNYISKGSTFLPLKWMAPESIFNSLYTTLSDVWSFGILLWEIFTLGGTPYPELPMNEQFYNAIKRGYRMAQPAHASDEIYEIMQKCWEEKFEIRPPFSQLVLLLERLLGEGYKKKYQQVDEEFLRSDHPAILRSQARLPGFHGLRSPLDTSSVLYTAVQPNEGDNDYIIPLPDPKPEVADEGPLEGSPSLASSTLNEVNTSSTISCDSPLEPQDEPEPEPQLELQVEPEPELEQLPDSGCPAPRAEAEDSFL
Chain of Phosphorylase b kinase gamma catalytic chain, skeletal muscle/heart isoform (Q16816 whole entry, canonical isoform): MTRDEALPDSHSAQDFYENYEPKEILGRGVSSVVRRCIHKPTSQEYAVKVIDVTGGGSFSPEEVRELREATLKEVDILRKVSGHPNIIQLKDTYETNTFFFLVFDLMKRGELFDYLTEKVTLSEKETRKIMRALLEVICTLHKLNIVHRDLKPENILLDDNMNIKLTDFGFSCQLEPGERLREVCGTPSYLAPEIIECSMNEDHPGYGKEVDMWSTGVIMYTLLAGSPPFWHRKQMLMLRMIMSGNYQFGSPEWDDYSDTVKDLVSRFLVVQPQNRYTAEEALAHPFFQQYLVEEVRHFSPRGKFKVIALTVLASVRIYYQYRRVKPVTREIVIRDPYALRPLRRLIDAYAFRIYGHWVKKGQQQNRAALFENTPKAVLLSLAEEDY

CC[C@H](CO)Nc1nc(NCc2ccccc2)c2ncn(C(C)C)c2n1 [SELICICLIB]
Not Active: [1] | [2] | [3] | [4] | [5] | [6] | [7] | LIM domain kinase 1 | [8] | [9] | [10] | [11] | [12] | [13]
